The values below come from PMC6329626 (British Journal of Pharmacology, 2018).

Read-outs that look alike come from different tables or passages of the source.

Data set [1] addresses CYP3A4 (testosterone 6β-hydroxylation) in HLM (Homo sapiens, UniProt P08684). The data set can be described thus: Inhibition by sulfaphenazole of testosterone hydroxylation in HLM. The data set is classed as biochemical.
The test system of data set [2] is HLM. To be noted: ref Towles et al., 2016; cited from earlier work.
The target in data set [3] is recombinant CYP3A7 (Homo sapiens, UniProt P24462). The data set is described as follows: Inhibition by sulfaphenazole of CYP3A7 Supersomes. The data set is classed as biochemical. The following applies: testosterone 50 μM.
Data set [4] relates to HLM. The following applies: 25 μM sulfaphenazole; ref Lakehal et al., 2001; cited from earlier work.
The test system of data set [5] is pooled HLM. The data set can be described thus: Inhibition of 5′-HM-FLX formation by pooled HLM by CYP-specific inhibitors. The class given is biochemical, human. The following applies: 10 μM inhibitor; pooled HLM.
For data set [6] the following is noted: read-out: Average Cmax in patients; patients taking 1000 mg orally; cited from earlier work.
Data set [7] relates to HLM from 16 donors. The class given is in vitro ADME, human. To be noted: for Pearson's r, FLX hydroxylation vs phenacetin O-deethylation: CYP1A2; for Pearson's r, FLX hydroxylation vs coumarin 7-hydroxylation: CYP2A6; for Pearson's r, FLX hydroxylation vs diclofenac 4′-hydroxylation: CYP2C9.
Data set [8] deals with pooled HLM. The data set is described as follows: Enzyme kinetics of 5′-HM-FLX formation from flucloxacillin by pooled HLM. The class given is in vitro ADME, human. To be noted: 0.5 mg·mL^−1 pooled HLM, 10 min, Michaelis–Menten fit.
In data set [9] the test system is biliary epithelial cells. To be noted: ref Lakehal et al., 2001; cited from earlier work.
Data set [10] deals with recombinant human CYP3A4 (Homo sapiens, UniProt P08684). The data set can be described thus: Enzyme kinetics of flucloxacillin hydroxylation by CYP3A4 Supersomes. The following applies: 100 nM CYP3A4 Supersomes, 10 min.
Sequence of recombinant human CYP3A4 (P08684 whole entry): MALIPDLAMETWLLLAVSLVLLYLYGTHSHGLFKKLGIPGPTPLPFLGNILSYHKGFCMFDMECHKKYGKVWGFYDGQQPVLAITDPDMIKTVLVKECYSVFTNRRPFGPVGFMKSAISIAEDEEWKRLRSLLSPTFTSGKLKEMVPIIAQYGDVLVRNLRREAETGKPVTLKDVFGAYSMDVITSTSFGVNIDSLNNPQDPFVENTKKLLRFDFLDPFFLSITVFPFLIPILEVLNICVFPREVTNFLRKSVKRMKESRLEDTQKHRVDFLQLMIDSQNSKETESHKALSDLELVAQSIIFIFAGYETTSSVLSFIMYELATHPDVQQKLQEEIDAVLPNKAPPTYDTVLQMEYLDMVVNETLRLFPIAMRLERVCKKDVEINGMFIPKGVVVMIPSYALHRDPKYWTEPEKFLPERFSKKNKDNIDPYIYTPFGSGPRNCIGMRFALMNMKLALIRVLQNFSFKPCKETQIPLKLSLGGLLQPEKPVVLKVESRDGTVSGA
Data set [11] has as its system CYP3A (flucloxacillin 5′-hydroxylation). The data set can be described thus: Inhibition of 5′-HM-FLX formation by pooled HLM by CYP-specific inhibitors. The data set is classed as biochemical, human. To be noted: human, pooled human liver microsomes, probe flucloxacillin (formation of 5′-HM-FLX), 10 and 100 μM. Background: Microsomes from liver hold many membrane-bound enzymes, among them those of drug oxidation.

Substrate in data set [12]: Cc1onc(-c2c(F)cccc2Cl)c1C(=O)N[C@@H]1C(=O)N2[C@@H]1SC(C)(C)[C@@H]2C(=O)O
The data set can be described thus: cells, lysate or membranes named. The data set is classed as in vitro ADME, human. To be noted: other: 100 nM CYP3A7 Supersomes, 10 min; pH 7.4; 37.0 °C.

Sequence of CYP3A4 (testosterone 6β-hydroxylation) in HLM (P08684 whole entry): as above

With `Nc1ccc(S(=O)(=O)Nc2ccnn2-c2ccccc2)cc1` [sulfaphenazole], in data set [1], the “Inhibition of testosterone hydroxylation” value is given as “but not testosterone hydroxylation”. The “Inhibition of bioactivation of hydroxylapatinib by HLM” value in data set [2] is recorded as “significantly inhibited”. Moreover, in [3], the “Inhibition of 6β-hydroxylation of testosterone” value is “not affected”. Besides, the “Inhibition of HLM-catalysed hydroxylation of flucloxacillin” value in data set [4] was “no inhibition”.

As to `COCCCC/C(=N\OCCN)c1ccc(C(F)(F)F)cc1` [fluvoxamine], the “Inhibition of 5′-HM-FLX formation” value in data set [5] was “did not show significant inhibition”.

Turning to `Cc1onc(-c2c(F)cccc2Cl)c1C(=O)N[C@@H]1C(=O)N2[C@@H]1SC(C)(C)[C@@H]2C(=O)O` [flucloxacillin], the Cmax in [6] is 100 µM. In addition, in data set [7] (10 μM FLX), the “Pearson's r, FLX hydroxylation vs phenacetin O-deethylation” value was found to be 0.04; the “Pearson's r, FLX hydroxylation vs coumarin 7-hydroxylation” value was 0.45; the “Pearson's r, FLX hydroxylation vs diclofenac 4′-hydroxylation” value is on record as 0.78. For the same molecule, in [7] (100 μM FLX), the “Pearson's r, FLX hydroxylation vs phenacetin O-deethylation” value worked out at 0.10; the “Pearson's r, FLX hydroxylation vs coumarin 7-hydroxylation” value was determined as 0.45; the “Pearson's r, FLX hydroxylation vs diclofenac 4′-hydroxylation” value was determined as 0.58. The “Pearson's r, FLX hydroxylation vs amodiaquine N-deethylation” value in data set [7] (CYP2C8, 10 μM FLX) was found to be 0.50. Also, in data set [7] (CYP2C19, 10 μM FLX), the “Pearson's r, FLX hydroxylation vs mephenytoin 4′-hydroxylation” value was 0.45. Further, in data set [7] (CYP3A4, 10 μM FLX), the “Pearson's r, FLX hydroxylation vs midazolam 1′-hydroxylation” value turned out to be 0.58 and the “Pearson's r, FLX hydroxylation vs testosterone 6β-hydroxylation” value turned out to be 0.69. In data set [8], the “K M of 5′-HM-FLX formation” value stood at 284 ± 38 µM and the “Vmax of 5′-HM-FLX formation” value is 30 ± 2 pmol·min^−1·mg^−1 protein. For the same molecule, the “Cytotoxicity to isolated biliary epithelial cells” value in data set [9] is “without effect”. The “K M of 5′-HM-FLX formation” value in [10] was 124 ± 15 µM.

In [11], `CC(=O)N1CCN(c2ccc(OCC3COC(Cn4ccnc4)(c4ccc(Cl)cc4Cl)O3)cc2)CC1` (stereo not shown) [ketoconazole] gave an inhibition at 1 μM of 50%.

B1: recombinant human CYP3A7 (Homo sapiens) (protein)
chain: MDLIPNLAVETWLLLAVSLILLYLYGTRTHGLFKKLGIPGPTPLPFLGNALSFRKGYWTFDMECYKKYRKVWGIYDCQQPMLAITDPDMIKTVLVKECYSVFTNRRPFGPVGFMKNAISIAEDEEWKRIRSLLSPTFTSGKLKEMVPIIAQYGDVLVRNLRREAETGKPVTLKHVFGAYSMDVITSTSFGVSIDSLNNPQDPFVENTKKLLRFNPLDPFVLSIKVFPFLTPILEALNITVFPRKVISFLTKSVKQIKEGRLKETQKHRVDFLQLMIDSQNSKDSETHKALSDLELMAQSIIFIFAGYETTSSVLSFIIYELATHPDVQQKVQKEIDTVLPNKAPPTYDTVLQLEYLDMVVNETLRLFPVAMRLERVCKKDVEINGMFIPKGVVVMIPSYVLHHDPKYWTEPEKFLPERFSKKNKDNIDPYIYTPFGSGPRNCIGMRFALVNMKLALVRVLQNFSFKPCKETQIPLKLRFGGLLLTEKPIVLKAESRDETVSGA
For the molecule B1, the kcat in data set [12] was 193 ± 7 pmol·min^−1·nmol^−1 P450.

One may read the Cmax as the maximum level reached in the sampled fluid or tissue. Usually inhibition stands for how much of the control response was suppressed. A low value points to a response near the control.
